The test system of assay [1] is PBMCs from asthma patients. Kind of assay: Cytokine production in PHA stimulated PBMCs cultured ex vivo with sitostanol. The format is cell-based, human. As to conditions: sitostanol 1.2 μM, 52 hours PHA stimulation. An excerpt:
20 people were enrolled in the study: 10 asthma patients and 10 healthy controls. Healthy controls were matched to the asthma patients in sex, age and body mass index (BMI). Exclusion criteria were smoking, diabetes, autoimmune diseases, inflammatory diseases, and the use of plant stanol or plant sterol enriched food products. Blood was taken twice from each participant, with a four-week interval. Peripheral blood mononuclear cells (PBMCs) were isolated and cultured with either cholesterol or sitostanol added to the culture. The concentration of PBMCs in the test culture was the same as in blood naturally. The concentrations of sitostanol and cholesterol were 1.2 μM. After 52 hours of stimulation with PHA (phytohemagglutinin), cytokine concentrations in the culture medium were determined. Cholesterol was added as a control to see whether the observed effects were specific plant stanol effects.

Assay [2] has as its target T1, TLR2 (Homo sapiens, UniProt O60603).
T1 construct: endogenous in cells
Briefly: Mechanism of the Th1 shift: TLR2 activation. The class given is cell-based.

From US9603858B2, “Compositions for preventing and treating an immune system disorder” (RAISIO NUTRITION LTD., priority 2010, dated 2017) come the findings set out here.

T1 sequence (O60603 21-784): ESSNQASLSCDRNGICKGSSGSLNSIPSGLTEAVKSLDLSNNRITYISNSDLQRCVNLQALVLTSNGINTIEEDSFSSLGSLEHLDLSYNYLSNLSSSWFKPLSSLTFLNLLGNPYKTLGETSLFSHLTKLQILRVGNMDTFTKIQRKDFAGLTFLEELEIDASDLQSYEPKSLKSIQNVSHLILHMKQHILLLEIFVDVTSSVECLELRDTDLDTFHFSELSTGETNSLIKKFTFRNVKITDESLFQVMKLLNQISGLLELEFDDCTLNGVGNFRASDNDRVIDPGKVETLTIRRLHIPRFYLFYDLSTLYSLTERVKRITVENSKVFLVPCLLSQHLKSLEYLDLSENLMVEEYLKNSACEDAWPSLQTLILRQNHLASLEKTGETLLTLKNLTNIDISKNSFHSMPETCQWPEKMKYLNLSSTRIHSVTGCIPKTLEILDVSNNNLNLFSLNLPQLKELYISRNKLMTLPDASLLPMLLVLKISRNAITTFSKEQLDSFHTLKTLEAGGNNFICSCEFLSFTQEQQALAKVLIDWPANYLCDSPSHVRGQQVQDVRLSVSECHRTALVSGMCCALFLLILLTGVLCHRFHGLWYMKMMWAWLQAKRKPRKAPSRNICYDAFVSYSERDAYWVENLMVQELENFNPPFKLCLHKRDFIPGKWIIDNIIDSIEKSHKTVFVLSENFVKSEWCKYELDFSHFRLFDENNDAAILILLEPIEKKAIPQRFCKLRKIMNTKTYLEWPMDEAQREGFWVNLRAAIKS

For `CC[C@H](CC[C@@H](C)[C@H]1CC[C@H]2[C@@H]3CC[C@H]4C[C@@H](O)CC[C@]4(C)[C@H]3CC[C@]12C)C(C)C` [sitostanol], in assay [1] (FIG. 1), the “IFNγ concentration in the culture medium, change vs. control condition” value is recorded as “increases” and the “IL-2 concentration in the culture medium, change vs. control condition” value is listed as “increases”. In addition, the “IL-10 production in PBMCs from asthma patients, change vs. control condition” value in assay [1] (FIG. 2) was “induces IL-10 production”. For the same compound, the “Th1 shift via activation of TLR2” value in assay [2] is given as “induces this Th1 shift via activation of TLR2”.
